The values that follow come from patent US20090119801A1, “Method for preserving cut flowers, cut flower preservation kit, method for manufacturing processed cut flowers, and processed cut flowers” (SUNTORY FLOWERS LIMITED, priority 2007, published 2009).

Molecules are shown by their SMILES.

The first data set in a line: Volatilization rate of organic solvents (Table 2). The data set is classed as physicochemical.
Conditions: not given
`OCC(O)CO` [glycerin]: the “volatilization rate (%)” value was found to be 0%.

As for `CCCCC(CC)COCCOCCO` (stereo not shown) [2-[2-(2-ethylhexyloxy)ethoxy]ethanol], the “volatilization rate (%)” value is given as 0%.

Consider `CC(CCO)CCO` [3-methyl-1,5-pentanediol], for which the “volatilization rate (%)” value worked out at 0%.

In the case of `CC(O)CC(C)(C)O` (stereo not shown) [2-methyl-2,4-pentanediol], the “volatilization rate (%)” value was determined as 3%.

As to `CCCC(O)C(CC)CO` (stereo not shown) [2-ethyl-1,3-hexanediol], the “volatilization rate (%)” value was 0%.

For `CCCCC(CC)COCCO` (stereo not shown) [2-(2-ethylhexyloxy)ethanol], the “volatilization rate (%)” value worked out at 1%.

Consider `OCCO` [ethylene glycol], for which the “volatilization rate (%)” value is listed as 0%.

Test in a further data set: not given
Conditions: logP; cited from earlier work.
As to `C1COCCO1` [1,4-dioxane], the partition coefficient is given as −0.271.

For the molecule `CC(C)=O` [acetone], the partition coefficient is −0.157.

In the case of `CO` [Methanol], the partition coefficient is on record as −0.719.
